In patent publication US10562857B2 (AFASCI, Inc., priority 2015, dated 2020):
Like-named read-outs stand apart in the source and are kept apart here.

Biological target: T1, Cav3.2 channel (Homo sapiens, UniProt O95180)
T1 construct: expressed in transfected cells; host or cells: HEK-293, tetracycline inducible expression system (Invitrogen)
Assay: Whole-cell patch clamp of T-type Cav3.2 channel expressed in HEK293 cells
Format: cell-based
Method: Cav3.1, Cav3.2 or Cav3.3 channels were expressed in human embryonic kidney (HEK)-293 cells using a tetracycline inducible expression system (Invitrogen). Cells were maintained in 25 cm^2 tissue culture flasks at 37° C., 5% CO2, and 100% relative humidity in D-MEM/F12 (Dulbecco's Modified Eagle Medium/Nutrient Mixture F-12; Gibco) supplemented with fetal bovine serum (FBS, 10% v/v), sodium pyruvate (0.5 mM, Gibco), penicillin-streptomycin (100 U/mL, 100 μg/mL) and Geneticin® Selective antibiotic (G418; 0.5 mg/mL). Cells were detached from the flask base using a non-enzymatic cell dissociation solution (Cellstripper, Corning), removed and re-seeded on to poly-D-lysine coated glass coverslips in 35 mm dishes. Cells in dishes were further supplemented with G418 at a final concentration of 1 mg/mL and after 24 hours, expression of Cav3.2 was induced with 1 μg/mL tetracycline. The medium for the HEK-293 cells was composed of D-MEM/F-12 (Dulbecco's Modified Eagle Medium/Nutrient Mixture F-12; Gibco, #11330-032) and 15 mM HEPES buffer, with L-glutamine and pyridoxine hydrochloride. It was supplemented with FBS (Fetal Bovine Serum), P/S (Penicillin/Streptomycin) (Gibco, #15140-122), and sodium pyruvate 100 mM (Gibco, #11360-070). At least 24 hours before the assay, expression of the alpha-2-delta-1 and beta2a subunits of the calcium channel were induced with 1 ug/mL tetracycline.
Whole-cell voltage clamp recordings were performed on rat or mouse DRG neurons within 2 days after acutely dissociation or cultured HEK293 cells expressing T-type channels (encoded by Cav3.1, Cav3.2 or Cav3.3 channels). All experiments were performed at room temperature (around 21° C.). Whole-cell currents were recorded using a MultiClamp 700B amplifier and analyzed offline with pCLAMP10.4 software (Molecular Devices, LLC, Sunnyvale Calif., USA). To record calcium currents in DRG and HEK293 cells, the external solution was composed (in mM) of 115 choline-Cl, 30 TEA-Cl, 2 CaCl2, 10 glucose and 10 HEPES (pH 7.3-7.4 adjusted with TEA-OH; osmolality verified as 295 mOsm/kg). The internal solution was composed (in mM) of 125 CsCl, 10 HEPES (acid), 10 EGTA (ethylene glycol tetraacetic acid), 1 CaCl2, 1 MgCl2, 4 MgATP and 0.3 MgGTP (pH 7.3-7.4 adjusted with CsOH; osmolality verified as 295 mOsm/kg). Since the sodium ions were absent in the external solution, tetrodoctoxin was not needed. Calcium currents were recorded at a holding potential of −100 mV and then depolarized to −30 mV for 100 ms to activate either Cav3.1, Cav3.2, or Cav3.3 expressed in HEK cells. An interpulse interval of 10 seconds allowed the channel recovery from inactivation, and achieved stable current recordings. To record sodium (Na^+) currents in DRG neurons, the external solution used the modified Krebs solution specified above. The internal solution was composed (in mM) of 120 CsF, 10 HEPES, 11 EGTA, 1 CaCl2, 1 MgCl2, 10 TEA-Cl, 4 MgATP and 0.3 MgGTP (pH 7.3-7.4 adjusted with CsOH). […] To record potassium currents in DRG neurons, the external solution used the modified Kreb's solution specified above. The internal solution was composed (in mM) of 65 KCl, 80 KF, 5 KOH, 10 EGTA, 2 MgATP (pH 7.3-7.4 adjusted with KOH). Recording electrodes were fabricated using a P-87 puller (Sutter Instrument Co., Novato, Calif., USA). The tip of resistance was 3-4 MQ in bath and the series resistance was less than 10 MΩ after whole cell configuration. All reagents were purchased from Sigma unless specified otherwise. Test compounds were usually applied via a rapid solution exchange system with 8 fine polyplastic tubings (100 μm, OD) glued in a holder in parallel and located closely to the recorded cells. […]

[1] = HEK293, Table 1 primary screening
[2] = Table 1, tested at at least 4 concentrations, read-out: IC50

T1 sequence (O95180 whole entry): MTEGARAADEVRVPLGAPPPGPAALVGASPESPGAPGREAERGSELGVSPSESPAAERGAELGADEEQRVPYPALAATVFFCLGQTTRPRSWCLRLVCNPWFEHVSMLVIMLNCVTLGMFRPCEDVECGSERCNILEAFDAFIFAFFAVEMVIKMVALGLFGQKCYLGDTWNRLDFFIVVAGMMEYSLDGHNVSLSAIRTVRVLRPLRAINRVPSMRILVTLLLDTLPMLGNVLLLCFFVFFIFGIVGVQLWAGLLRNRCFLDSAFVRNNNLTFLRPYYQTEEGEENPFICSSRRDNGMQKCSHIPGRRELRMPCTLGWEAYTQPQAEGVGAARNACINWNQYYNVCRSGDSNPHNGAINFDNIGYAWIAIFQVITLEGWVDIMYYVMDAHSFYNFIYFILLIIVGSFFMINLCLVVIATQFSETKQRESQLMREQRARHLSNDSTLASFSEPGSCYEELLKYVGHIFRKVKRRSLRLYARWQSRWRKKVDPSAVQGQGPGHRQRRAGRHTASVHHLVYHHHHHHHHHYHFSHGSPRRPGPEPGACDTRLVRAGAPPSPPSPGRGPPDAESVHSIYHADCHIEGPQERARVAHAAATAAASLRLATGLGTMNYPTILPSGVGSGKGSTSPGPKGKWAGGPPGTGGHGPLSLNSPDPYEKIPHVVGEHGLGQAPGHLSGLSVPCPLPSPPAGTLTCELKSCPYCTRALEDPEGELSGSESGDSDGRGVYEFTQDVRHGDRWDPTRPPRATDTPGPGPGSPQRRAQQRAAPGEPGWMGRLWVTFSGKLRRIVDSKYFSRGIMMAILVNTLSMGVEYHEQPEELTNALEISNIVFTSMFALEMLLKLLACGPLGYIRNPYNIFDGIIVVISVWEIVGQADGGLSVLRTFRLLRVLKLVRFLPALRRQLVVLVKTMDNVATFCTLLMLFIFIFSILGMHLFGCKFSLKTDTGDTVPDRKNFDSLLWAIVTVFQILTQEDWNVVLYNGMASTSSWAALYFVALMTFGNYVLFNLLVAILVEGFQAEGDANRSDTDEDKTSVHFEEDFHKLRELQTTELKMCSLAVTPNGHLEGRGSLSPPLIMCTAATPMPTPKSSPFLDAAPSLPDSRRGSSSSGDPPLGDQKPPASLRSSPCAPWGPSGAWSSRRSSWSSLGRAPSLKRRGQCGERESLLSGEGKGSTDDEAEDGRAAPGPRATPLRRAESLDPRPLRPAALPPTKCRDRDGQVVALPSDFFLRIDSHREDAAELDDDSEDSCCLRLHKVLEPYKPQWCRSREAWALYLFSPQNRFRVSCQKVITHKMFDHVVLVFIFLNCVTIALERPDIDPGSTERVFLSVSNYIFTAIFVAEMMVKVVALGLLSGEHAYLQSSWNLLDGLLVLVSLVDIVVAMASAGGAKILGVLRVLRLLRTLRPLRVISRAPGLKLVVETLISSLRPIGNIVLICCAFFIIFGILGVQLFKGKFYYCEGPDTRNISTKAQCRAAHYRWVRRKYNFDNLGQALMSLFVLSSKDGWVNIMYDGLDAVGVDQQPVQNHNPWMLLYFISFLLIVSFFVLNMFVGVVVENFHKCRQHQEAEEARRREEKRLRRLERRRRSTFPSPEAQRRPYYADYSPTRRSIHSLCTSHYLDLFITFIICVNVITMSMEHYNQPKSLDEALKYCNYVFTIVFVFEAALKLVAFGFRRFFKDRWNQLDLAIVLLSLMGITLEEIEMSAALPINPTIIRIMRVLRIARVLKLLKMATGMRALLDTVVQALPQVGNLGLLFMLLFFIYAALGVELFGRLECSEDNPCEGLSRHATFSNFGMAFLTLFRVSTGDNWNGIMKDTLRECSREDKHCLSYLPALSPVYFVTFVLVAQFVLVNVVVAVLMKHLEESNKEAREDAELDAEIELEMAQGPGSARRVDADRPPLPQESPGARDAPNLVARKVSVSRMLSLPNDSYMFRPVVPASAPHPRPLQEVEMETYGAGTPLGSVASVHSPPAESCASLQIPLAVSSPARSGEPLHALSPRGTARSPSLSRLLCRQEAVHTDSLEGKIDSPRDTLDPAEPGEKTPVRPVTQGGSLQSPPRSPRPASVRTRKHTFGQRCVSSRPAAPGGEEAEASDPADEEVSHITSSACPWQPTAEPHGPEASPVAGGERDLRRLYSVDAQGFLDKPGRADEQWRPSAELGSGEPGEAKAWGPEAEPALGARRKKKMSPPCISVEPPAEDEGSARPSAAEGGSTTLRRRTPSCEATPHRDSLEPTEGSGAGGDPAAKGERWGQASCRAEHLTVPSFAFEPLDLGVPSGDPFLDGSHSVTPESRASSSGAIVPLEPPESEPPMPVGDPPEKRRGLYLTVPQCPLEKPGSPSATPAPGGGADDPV

inhibition at 1 µM [1] [%]	IC50 [2] [nM]	Compound	other results
35		O=C(Nc1cc(Cl)cc(Cl)c1)C1CC12CCN(CCc1ccccc1)CC2 (stereo not drawn) [Example 92, N-(3,5-Dichlorophenyl)-6-phenethyl-6-azaspiro[2.5]octane-1-carboxamide]	
75		O=C(Cc1cccc(Cl)c1)Nc1nnc(-c2ccc(Cl)s2)o1 [Example 121, 2-(3-Chlorophenyl)-N-(5-(5-chlorothiophen-2-yl)-1,3,4-oxadiazol-2-yl)acetamide]	
	690	CC(C)(C)NC(=O)CN1CCC2(CC1)CC2CNC(=O)c1cc(Cl)cc(Cl)c1 (stereo not drawn) [Example 87, N-((6-(2-(tert-Butylamino)-2-oxoethyl)-6-azaspiro[2.5]octan-1-yl)methyl)-3,5-dichlorobenzamide]	
	800	O=C(NC1CC12CCN(Cc1ccccc1)CC2)c1ccc(Cl)c(Cl)c1 (stereo not drawn) [Example 10, N-(6-Benzyl-6-azaspiro[2.5]octan-1-yl)-3,4-dichlorobenzamide]	
	60	CC(C)(C)CCN1CCC2(CC1)CC2NC(=O)c1cc(Br)cc(Br)c1 (stereo not drawn) [Example 25, 3,5-Dibromo-N-(6-(3,3-dimethylbutyl)-6-azaspiro[2.5]octan-1-yl)benzamide]	
	280	CC(C)(C)CCN1CCC2(CCC2NC(=O)c2cc(Cl)cc(Cl)c2)CC1 (stereo not drawn) [Example 69, 3,5-Dichloro-N-(7-(3,3-dimethylbutyl)-7-azaspiro[3.5]nonan-1-yl)benzamide]	
	20	CC(C)(C)CCN1CCC2(CC1)CC2NC(=O)c1cc(F)cc(C(F)(F)F)c1 (stereo not drawn) [Example 24, N-(6-(3,3-Dimethylbutyl)-6-azaspiro[2.5]octan-1-yl)-3-fluoro-5-(trifluoromethyl)benzamide]	
69		CC(C)(C)CCN1CCC2(CC1)CC2NC(=O)c1cccc(C(F)(F)F)c1 (stereo not drawn) [Example 29, N-(6-(3,3-Dimethylbutyl)-6-azaspiro[2.5]octan-1-yl)-3-(trifluoromethyl)benzamide]	
	90	O=C(NCC1CC12CCN(CCc1ccccc1)CC2)c1cc(Cl)cc(Cl)c1 (stereo not drawn) [Example 89, 3,5-Dichloro-N-((6-phenethyl-6-azaspiro[2.5]octan-1-yl)methyl)benzamide]	
64		CC(C)(C)CCN1CCC2(CC1)CC2NC(=O)c1cncc(C(F)(F)F)c1 (stereo not drawn) [Example 26, N-(6-(3,3-dimethylbutyl)-6-azaspiro[2.5]octan-1-yl)-5-(trifluoromethyl)nicotinamide]	
		O=C(CCc1cccc(Cl)c1)Nc1nnc(-c2ccccc2)o1 [Example 119, 3-(3-Chlorophenyl)-N-(5-phenyl-1,3,4-oxadiazol-2-yl)propanamide]	inhibition at 3 µM (HEK293, Table 1 primary screening, 3 μM as indicated in cell, read-out: % inhibition at 3 μM): 5%
	160	CC(C)(C)C(=O)CN1CCC2(CC1)CC2NC(=O)c1cc(Cl)cc(Cl)c1 (stereo not drawn) [Example 49, 3,5-Dichloro-N-(6-(3,3-dimethyl-2-oxobutyl)-6-azaspiro[2.5]octan-1-yl)benzamide]	
8.5		O=C(Nc1nnc(-c2ccccc2F)o1)c1cnccn1 [Example 127, N-(5-(2-Fluorophenyl)-1,3,4-oxadiazol-2-yl)pyrazine-2-carboxamide]	
29		O=S(=O)(NC1CC12CCN(CCc1ccccc1)CC2)c1cc(Cl)cc(Cl)c1 (stereo not drawn) [Example 52, 3,5-Dichloro-N-(6-phenethyl-6-azaspiro[2.5]octan-1-yl)benzenesulfonamide]	
69		CC(C)(C)CCN1CCC2(CC1)CC2NC(=O)c1ccc(Cl)cc1Cl (stereo not drawn) [Example 23, 2,4-Dichloro-N-(6-(3,3-dimethylbutyl)-6-azaspiro[2.5]octan-1-yl)benzamide]	
	260	O=C(CN1CCC2(CC1)CC2NC(=O)c1cc(F)cc(Cl)c1)c1ccc(C(F)(F)F)cc1 (single isomer, unassigned) [Example 136, (R)-3-Chloro-5-fluoro-N-(6-(2-oxo-2-(4-(trifluoromethyl)phenyl)ethyl)-6-azaspiro[2.5]octan-1-yl)benzamide or (S)-3-Chloro-5-fluoro-N-(6-(2-oxo-2-(4-(trifluoromethyl)phenyl)ethyl)-6-azaspiro[2.5]octan-1-yl) benzamide]	
37		CC(C)(C)CCN1CCC2(CC1)CC2NC(=O)c1ccccc1Cl (stereo not drawn) [Example 20, 2-Chloro-N-(6-(3,3-dimethylbutyl)-6-azaspiro[2.5]octan-1-yl)benzamide]	
67		Clc1cc(Cl)cc(NCC2CC23CCN(CCc2ccccc2)CC3)c1 (stereo not drawn) [Example 95]	
	160	O=C(NC1CC12CCN(CCc1ccc(F)cc1)CC2)c1cc(Cl)cc(Cl)c1 (stereo not drawn) [Example 40, 3,5-Dichloro-N-(6-(4-fluorophenethyl)-6-azaspiro[2.5]octan-1-yl)benzamide]	
	520	CC(C)NC(=O)CN1CCC2(CC1)CC2NC(=O)c1cc(F)cc(Cl)c1 (single isomer, unassigned) [Example 140, (R)-3-Chloro-5-fluoro-N-(6-(2-(isopropylamino)-2-oxoethyl)-6-azaspiro[2.5]octan-1-yl)benzamide or (S)-3-Chloro-5-fluoro-N-(6-(2-(isopropylamino)-2-oxoethyl)-6-azaspiro[2.5]octan-1-yl)benzamide]	
26		O=C(CN1CCC(CNC(=O)c2ccccc2)CC1)NC1CCCCC1 [Example 100, N-((1-(2-(Cyclohexylamino)-2-oxoethyl)piperidin-4-yl)methyl)benzamide]	
	130	CC(C)(C)CCN1CCC2(CC1)CC2CNc1cc(Cl)cc(Cl)c1 (stereo not drawn) [Example 94]	
	200	CC(C)(C)NC(=O)CN1CCC2(CCC2NC(=O)c2cc(Cl)cc(Cl)c2)CC1 (stereo not drawn) [Example 71, N-(7-(2-(tert-Butylamino)-2-oxoethyl)-7-azaspiro[3.5]nonan-1-yl)-3,5-dichlorobenzamide]	
	120	CC(C)(C)C(=O)CN1CCC2(CC1)C[C@H]2NC(=O)c1cc(F)cc(Cl)c1 (single isomer, unassigned) [Example 134, (R)-3-Chloro-N-(6-(3,3-dimethyl-2-oxobutyl)-6-azaspiro[2.5]octan-1-yl)-5-fluorobenzamide or (S)-3-Chloro-N-(6-(3,3-dimethyl-2-oxobutyl)-6-azaspiro[2.5]octan-1-yl)-5-fluorobenzamide]	
	230	CN(C(=O)c1cc(Cl)cc(Cl)c1)C1CC12CCN(CCC(C)(C)C)CC2 (stereo not drawn) [Example 54, 3,5-Dichloro-N-(6-(3,3-dimethylbutyl)-6-azaspiro[2.5]octan-1-yl)-N-methylbenzamide]	
	1400	CC(C)(C)CCN1CCC2(CC1)CC2NC(=O)c1cccc(C#N)c1 (stereo not drawn) [Example 34, 3-Cyano-N-(6-(3,3-dimethylbutyl)-6-azaspiro[2.5]octan-1-yl)benzamide]	
25		CC(C)(C)NC(=O)CN1CCC2(CC1)CC2NS(=O)(=O)c1cc(Cl)cc(Cl)c1 (stereo not drawn) [Example 53, N-(tert-Butyl)-2-(1-((3,5-dichlorophenyl)sulfonamido)-6-azaspiro[2.5]octan-6-yl)acetamide]	

Compound	inhibition at 1 µM [1] [%]	IC50 [2] [nM]	other results
O=C(N[C@@H]1CCC12CCN(CCc1ccccc1)CC2)c1ccccc1 [Example 111]	30		IC50: 1500 nM
O=C(N[C@H]1CCC12CCN(CCc1ccccc1)CC2)c1ccccc1 [Example 112]	24		
